Test in all cases: UV-vis spectrophotometric hydrolysis assay, Michaelis-Menten fit
For data set [1], the system named is T1, ApaA.
T1 construct: His6-tagged, plasmid pTIP-apaA (pTIPQC1), expressed in Rhodococcus erythropolis L88, Ni-NTA purified
The format is biochemical, Rhodococcus sp. NyZ502. The settings on record: 100 mM phosphate buffer pH 7.4; 30 °C.

Substrate in data set [2]: CC(=O)Nc1ccc(O)cc1
The format is biochemical, bacterium CSBL00001. The conditions noted are these: 100 mM phosphate buffer pH 7.4, 30 °C.

Substrate in data set [3]: CC(=O)Nc1ccc([N+](=O)[O-])cc1
The format is biochemical, bacterium CSBL00001. The settings on record: 100 mM phosphate buffer pH 7.4, 30 °C.

As for `CC(=O)Nc1ccc(O)cc1` [Acetaminophen], in data set [1], the Km (in general, the concentration of substrate that gives half-maximal velocity) amounted to 8.96 µM.
As to `CC(=O)Nc1ccc([N+](=O)[O-])cc1` [4-nitroacetanilide], the Km in data set [1] stood at 26.6 ± 4.21 µM.
The same measure, in the same setting: then `CC(=O)Nc1ccccc1` [acetanilide], with 30.2 ± 3.86 µM.

B1: AAA (bacterium CSBL00001) (protein)
chain: MGKSHSPVHWKSAAEIVELVKSKQISPREVVESTIDLIEQRDPGLNAVVYKAYDEAREKAAALERRIMQGEPVGMLAGVPTLMKDLFAAKPGWPSTLGGIRALKDARGAAGVWSTYPLKMSGEDSLLLGQTNSPVYGFRGTTDNTFFGPTRNPFNLDFNAGGSSGGAAALVADGIVPVAGGTDGGGSIRIPAAWTNTYGFQPSIGRVPFKSRPNAFHPGPYLYEGPITRTVRDAALAMNVLHGFDRRDPASLRVKLDFTSALAQGVRGKKIGLTLNYGVFPVQQEIQDLIGKAARVFTELGAHVEFVDLGIPYSQKQMSDAWCRMIAIPTVASMQALRKEGIDLYGEHRADIPDALMKWIDAVADISVQQISADQLLRTTVFDCMNGVFDRFDLLLAPTLACMPVRNATDGCTEGPSQINGEEIDPLIGWCMTYLTNFSGHPSASVPAGLIDGLPAGMLIIGDRQADLDVIAASAAFERASPWSQYYDIPAGRPL
notes: His6-tagged, plasmid pET-aaa (pET-28a(+)), expressed in E. coli BL21(DE3), Ni-NTA purified
On to B1, for which, in data set [2], the Km was 22.13 µM. In data set [3], the Km is 16.82 ± 5.55 µM and the kcat – broadly, the maximal rate divided by the concentration of active sites – is 5.65 ± 0.54 s⁻¹.

For the origin of these results see article PMC11887370, “The universal accumulation of p-aminophenol during the microbial degradation of analgesic and antipyretic acetaminophen in WWTPs: a novel metagenomic perspective” (Microbiome, 2025).
